Results published in patent US20070254319A1, “IDENTIFICATION OF A CONS[…] CANCER STEM CELL” (University of Pittsburgh - Of the Commonwealth System of …, priority 2006, published 2007).

What was measured:
ABCG2 (BCRP) = assay: Hoechst 33342 / R123 efflux (SP phenotype) in freshly isolated therapy naive non-small cell lung tumor cells; format: cell-based; conditions: human, probe Hoechst 33342; inhibitor 10 microM; coincubation with Hoechst 33342 8 microM and R123 0.13 microM, 90 minutes at 37° C.
Description: Antibody stained suspended tumor cells were incubated simultaneously with the ABCG2/ABCB1 substrate Hoechst 33342 (8 microM) plus the ABCB1 substrate rhodamine 123 (R123, 0.13 microM) for 90 minutes at 37° C. Propidium iodide (PI, 10 microg/mL) was added immediately before sample acquisition. All events were gated on PI excluding (live), non-hematopoietic singlets. Five million events were collected. This basic experimental design has been repeated, with modifications, on 10 samples from untreated breast, ovarian, gastric and lung tumors with consistent results.
SP (top panels) and non-SP cells (bottom panels) were further characterized: A proportion of SP cells also excluded the ABCB1 substrate dye R123. These accounted for 29% of the SP cells (color-evented red in the dot plots) and accounted for almost all of the cells with low forward and side light scatter consistent with a resting morphology (FIG. 5). […] A significant proportion of both SP and non-SP cells expressed CD90, often in combination with epithelial specific antigen, HEA.

[1] = test system: K562-G185 cells (ABCB1/MDR1 transfectant); assay: Hoechst 33342 efflux (side population, SP) in MDR1-transfected K562-G185 cells with and without inhibitors; format: cell-based, human; conditions: CD117- cells; Ho33342 8 microM and R123 0.13 microM, 90 min
Description: (§1) Cells were stained with anti-CD117 and incubated for 90 min in the presence of Ho33342 (8 microM, ˜5 microg/mL) and R123 (0.13 microM) with and without inhibitors. PI was added immediately before acquisition on the MoFlo flow cytometer in order to eliminate dead cells. Events were gated to exclude cell clusters and dead cells. The side population (SP) phenotype (blue gate) and R123 excluding cells (single parameter histogram left of the dashed line) were measured on CD117− (top panels) and CD117+ (bottom panels).
(§2) Here, the SP cells (within the blue gate in the left plots) is color evented blue, whereas SP negative cells are shown in gray.
(§3) Simultaneous measurement of R123 and Ho33342 dye efflux. […] Two cell lines were used, the parent line K562, which has a small subpopulation of CD117+ cells which constitutively express ABCG2 (BCRP1), and the ABCB1 (MDR1) transfectant line K562-G185 (39) (FIG. 9). G185 cells were maintained in vincristine (100 ng/mL) to select against ABCB1 negative cells.

[2] = test system: parental K562 cells (native ABCG2); assay: Hoechst 33342 efflux (side population, SP) in parental K562 cells with and without inhibitors; format: cell-based, human
Description: as §1, §2, §3

SMILES | inhibition at 90 min, 10 microM (ABCG2 (BCRP)) | effect on the side population (SP), in words [1] | effect on Ho33342 transport, in words ([2]; CD117+ population of parental K562 cells) | inhibition of the native SP phenotype, in words ([2]; CD117- cells, native SP 1.42% of cells, Ho33342 8 microM, 90 min)
COc1ccc2c3c([nH]c2c1)[C@H](C=C(C)C)N1C(=O)[C@@H]2CCCN2C(=O)[C@@H]1C3 [fumitremorgin] | 75% | not affected | abrogates | equally inhibited
CC[C@]1(O)C[C@H]2CN(CCc3c([nH]c4ccccc34)[C@@](C(=O)OC)(c3cc4c(cc3OC)N(C=O)[C@H]3[C@@](O)(C(=O)OC)[C@H](OC(C)=O)[C@]5(CC)C=CCN6CC[C@]43[C@@H]65)C2)C1 [vincristine] |  | not affected |  | 
